Test results reported in patent US11541093B2, “Pharmacological use of Cimicifuga extract” (Max Zeller Soehne AG, priority 2012, dated 2023).

How the values were obtained:
diabetic rats = settings: intravenously at 5 and 10 mg/kg; cited from earlier work
male ob/ob mice [1] = assay: Body weight in male ob/ob mice; assay type: in vivo
Excerpt: (§1) The effects of oral 7-day administration of a Cimicifuga racemosa extract prepared according to example 1 and designated Ze 450 on body weight, daily food and water intake as well as glucose control were investigated in male ob/ob mice as follows. The ob/ob mouse is a well-characterized and representative in-vivo model of obesity and diabetes in mammals, in particular humans, wherein both disorders are the result of a mutation in the ob gene which encodes leptin. In the study metformin was the positive control.
(§2) Body weight, food and water intake were measured daily from 6 days before dosing to 6 days after dosing started. Animals were fasted overnight on Day 6 for an oral glucose tolerance test (OGTT) on Day 7. The animals also had freely fed bleeds on Day −4 and Day 6. […]
(§3) All treatments were dosed orally by gavage […] once daily. During the treatment period food intake, water intake and body weight were recorded daily at the dosing session. After dosing the animals were examined and any overt behavior was recorded. […]
(§4) Body weights, food intake and water intake were expressed as mean values ±SEM. Body weight, body weight gain, daily and average food and water intake data and cumulative food intake were analyzed by ANCOVA with baseline as a covariate, followed by appropriate comparisons (two-tailed) to determine significant differences from the appropriate control group. […]

male ob/ob mice [2] = assay: Daily water intake in male ob/ob mice; assay type: in vivo; settings: metformin PO; p=0.002
Excerpt: as §1, §2, §3, §4

| SMILES | plasma glucose levels (diabetic rats) | effect on overall body weight (male ob/ob mice [1]; metformin 200 mg/kg PO, after 6 days of treatment) | cumulative body weight over the 6 treatment days (male ob/ob mice [1]; metformin PO, compared to its control group) | average weekly water intake (male ob/ob mice [2]) |
| --- | --- | --- | --- | --- |
| COc1ccc(/C=C/C(=O)O)cc1O [isoferulic acid] | will lower plasma glucose levels | – | – | – |
| CN(C)C(=N)N=C(N)N [metformin] | – | no significant effect | virtually no reduction | significant (p=0.002) reduction |
